Square brackets hold non-standard residues; d marks the D form. Peptide text beside a SMILES is read from it. PEG2 = NCCOCCOCCC(=O)O
B1: HB-EGF: heparin binding-epidermal growth factor, used as the positive control (protein, UniProt Q99075 63-148, looked up)
Heparin-binding EGF-like …: DLQEADLDLLRVTLSSKPQALATPNKEEHGKRKKKGKGLGKKRDPCLRKYKDFCIHGECKYVKELRAPSCICHPGYHGERCHGLSL

What was measured:
[1] = system: P. aeruginosa ATCC 27853; type: cell-based, Pseudomonas aeruginosa; conditions: Pseudomonas; inoculum 1×10^6 CFU/ml; 60 to 180 minute incubation
Procedure: (§1) In vitro bactericidal activity: The three peptide compounds BCC01-5RMP (SEQ ID NO:23), BCC002-5RMP (SEQ ID NO:21), and BCC003-5RMP (SEQ ID NO:22) were assayed for in vitro bactericidal activity against Pseudomonas aeruginosa, Escherichia coli, Salmonella typhimurium, and Acinetobacter baumannii. The starting inoculum for all experiments was 1×10^6 colony forming units (CFU)/ml. The CFU remaining at the end of 60 to 180 minute incubation was determined, and the data plotted as a log reduction in CFU/ml.
Table 4 further compares the activity of several other compounds, including the “5R” versions of BCC01, i.e., SEQ ID NO:20 (which comprises SEQ ID NO: 7 with five additional arginines), the “5R” version of BCC002 (i.e., SEQ ID NO:18, which comprises SEQ ID NO: 1 with five additional arginines), and the 5RMP versions of BCC01 (SEQ ID NO: 23) and BCC002 (SEQ ID NO: 21). The data generally indicate the superiority of BCC003-5RMP (SEQ ID NO:22) and BCC002-5RMP (SEQ ID NO: 21) and the superiority of the 5R or 5RMP versions of the peptide over the “AEEP only” peptide against P. aeruginosa.

[2] = system: Escherichia coli; assay: In vitro bactericidal activity against Escherichia coli; type: cell-based; conditions: E. coli; inoculum 1×10^6 CFU/ml; 60 to 180 minute incubation
Procedure: as §1

[3] = system: Salmonella typhimurium; assay: In vitro bactericidal activity against Salmonella typhimurium; type: cell-based; conditions: inoculum 1×10^6 CFU/ml, 60 to 180 minute incubation
Procedure: as §1

[4] = system: Acinetobacter baumannii; assay: In vitro bactericidal activity against Acinetobacter baumannii; type: cell-based; conditions: inoculum 1×10^6 CFU/ml, 60 to 180 minute incubation
Procedure: as §1

[5] = system: Pseudomonas LPS; assay: LPS binding, Limulus Amebocyte Lysate (LAL) assay; conditions: LAL method
Procedure: (§2) The well-characterized response of RAW264.7 macrophage cells was used to produce tumor necrosis-factor-alpha (TNF-α) in response to LPS to determine whether the peptides could dampen the release of this cytokine. […] Importantly, pre-treatment (3 hours prior to LPS addition) as well as post-treatment of the RAW264.7 cells (3 hours post LPS addition) with peptide dampened the cytokine release. […] The finding that the novel peptides bind and neutralize the effect of Pseudomonas LPS is of critical importance since this ensures that the novel therapeutic peptide compounds described herein will not only kill the bacteria, but will also neutralize the LPS endotoxin released by the bacteria which plays such an important role in the rapid progression of sepsis.
(§3) BCC01-5RMP (SEQ ID NO:23), BCC002-5RMP (SEQ ID NO:21), and BCC003-5RMP (SEQ ID NO:22) were tested for their ability to bind lipopolysaccharide (LPS) using the limulus amebocyte lysate method (LAL). […] There was no statistical difference in their ability to bind LPS using the LAL technique. The ability of the peptides to neutralize LPS was assessed by determining their ability to attenuate the release of tumor necrosis factor-alpha (TNF-α) from LPS-stimulated RAW264.7 cells (a mouse macrophage cell line). […] No significant differences were observed between the three peptides to neutralize LPS as measured by cytokine release. Peptides based on sequence 120-146 (SEQ ID NOS:28-31) also bind and neutralize Pseudomonas LPS.

[6] = system: release of TNF-α from LPS-stimulated RAW264.7 cells; assay: LPS neutralization: TNF-α release from LPS-stimulated RAW264.7 cells; type: cell-based, mouse
Procedure: as §2, §3

[7] = system: mouse corneal epithelium abrasion; assay: In vivo model of corneal wound healing; conditions: HB-EGF 250 ng/ml at 0 and 16 hours
Procedure: (§4) The mouse corneal epithelium was removed using the AlgerBrush II (The Alger Company, Inc., Lago Vista, Tex.), and corneal abrasions were treated at 0 hours and 16 hours with peptide 95-122 (10^−5 M), or were left untreated in 0.9% sodium chloride (saline vehicle) Wound healing was monitored at 0, 16, and 24 hours using fluorescein staining and a camera-equipped inverted microscope. Data are represented as the percentage of wound closure at 16 hours and 24 hours and are expressed as means±SEM. The data are representative of at least 6 mice per group. *P<0.05 by unpaired t-test as compared to vehicle (0.9% sodium chloride) treated controls.
as §4, with “II,” for “II (The Alger Company, Inc., Lago Vista, Tex.),”, “0” for “0 hours”, “120-146WH (10^−8 M or 10^−6” for “95-122 (10^−5”, “vehicle control).” for “vehicle)”, “group. ***P<0.001,” for “group.”
(A) The epithelium of the mouse cornea was removed using the AlgerBrush II, and corneal abrasions were treated at 0 and 16 hours with HB-EGF (250 ng/ml), rCAP37 (250 ng/ml), or vehicle control (normal saline). Wound closure was monitored at 0, 16, 24, and 48 hours using fluorescein staining and a camera-equipped inverted microscope. Data are represented as the percentage of wound closure and are expressed as mean±SEM. The data are representative of at least 6 mice per group. The percentage of wound closure in response to treatment was compared to vehicle-treated controls by unpaired t-test, **P<0.01, *P<0.05. (B) Representative images of mouse corneal wounds are shown at 0, 16, 24, and 48 hours following treatment with vehicle, HB-EGF, and CAP37. Black dotted lines indicate the wound edge.
In vivo model of corneal wound healing: The in vivo model of wound healing was carried out using a disposable biopsy punch (2 mm, Miltex, York, Pa.) to demarcate the mouse cornea and a 0.5 mm burr using the AlgerBrush II (The Alger Company, Inc., Lago Vista, Tex.) to remove the corneal epithelium.
In vivo model of wound healing: Mice were anesthetized using ketamine (100 mg/kg; Bionichepharma, LLC., St. Lake Forrest, Ill.) and xylazine ([…]; Rompun; Bayer Corp., Shawnee Mission, Kans.), and the right cornea was wounded as follows. A disposable biopsy punch (2 mm, Miltex, York, Pa.) was used to demarcate the mouse cornea. The corneal epithelium was carefully removed within the 2 mm demarcated area with a 0.5 mm burr using the AlgerBrush II (The Alger Company, Inc., Lago Vista, Tex.). The corneal abrasions were treated at 0 and 16 hours with HB-EGF (250 ng/ml), rCAP37 (250 ng/ml), or vehicle control (0.9% sodium chloride, pH 5.5, Baxter, Deerfield, Ill.). Corneal abrasions were visualized using sterile fluorescein sodium ophthalmic strips USP (FLUORETS®, Chauvin Laboratory, Aubenas, France) dampened with sterile PBS. […] The areas of the open wound were quantitated using ImageJ software (US National Institutes of Health), and the results were reported as the percentage of wound closure.

[8] = system: human corneal epithelial cell (HCEC); assay: HCEC chemotaxis, modified Boyden chemotaxis chamber; type: cell-based; conditions: HB-EGF 50 ng/ml; positive control
Procedure: The effect of buffer control (0.1% BSA in Gey's buffer), heparin binding-epidermal growth factor (HB-EGF, 50 ng/ml), recombinant CAP37 (rCAP37, 250 ng/ml), 120-146QH (10^−12M, 10^−10 M, 10^−8 M, 10^−6M, and 10^−4M,) and 120-146QR (10^−10M, 10^−8M, 10^−6M, and 10^−4M) on HCEC chemotaxis was determined by the modified Boyden chemotaxis chamber method. HCEC chemotaxis was measured in response to HB-EGF, rCAP37, and peptides 120-146QH (SEQ ID NO:29) and 120-146QR (SEQ ID NO:28) after incubation for 3 hours at 37° C. Chemotaxis is expressed as a percent migration. The buffer control (no chemoattractant) is arbitrarily assigned the value of 100% migration. Data are expressed as means±SEM and are calculated from 6 observations for each test point. **P<0.01 by Wilcoxon signed-rank test as compared to controls.
Chemotaxis: Chemotaxis assays were performed using the modified Boyden chemotaxis chamber assay. Peptide 120-146QH was used at 10^−4 M, 10^−6 M, 10^−8 M, 10^−10 M, and 10^−12 M, and peptide 120-146QR was used at 10^−4 M, 10^−6 M, 10^−8M, and 10^−10M.

[9] = system: HCEC monolayers; assay: In vitro scratch assay of HCEC monolayers; type: cell-based, human; conditions: HB-EGF 250 ng/ml
Procedure: (A) HCECs were grown to confluency and scratched using a 10 μl pipette tip. Scratched HCEC monolayers were treated with HB-EGF (250 ng/ml) or rCAP37 (25-2000 ng/ml), or were left untreated in basal Keratinocyte Serum Free Medium (KSFM). Wound closure was monitored at 0, 18, 24, and 48 hours utilizing a camera-equipped inverted microscope. The histogram represents data acquired at 48 hours, and the values are the mean±SEM of the percentage of wound closure. The data are representative of at least 4 independent experiments. The percentage of wound closure in treated monolayers was compared to untreated controls by one-way analysis of variance (ANOVA) followed by Dunnett's multiple comparison test, **P<0.01, *P<0.05. (B) Representative images of scratched monolayers treated with buffer control, HB-EGF, and rCAP37 (at 25, 100, and 250 ng/ml) are shown for each time point. Images were taken at 20× objective.
In vitro model of wound healing: An in vitro scratch assay was used in order to determine the ability of rCAP37 to facilitate corneal wound healing. Human corneal epithelial cells were cultured as described above until they reached a confluent monolayer. Each monolayer was scratched using a 10 μl pipette tip to create two perpendicular lines. Monolayers were treated with heparin binding-epidermal growth factor (HB-EGF, 250 ng/ml; Becton Dickinson), rCAP37 (25-2000 ng/ml), or basal KSFM (Gibco). Wound closure was monitored at 0, 18, 24, and 48 hours utilizing a camera-equipped inverted microscope (TE2000-E; Nikon, Melville, N.Y.). Time-lapse images of in vitro wound closure were obtained using a camera-equipped inverted microscope (TE2000-E; Nikon) from […]. HCEC monolayers were treated with HB-EGF, rCAP37, and basal KSFM as described above. The width of each scratch was quantitated using ImageJ software (US National Institutes of Health, Bethesda, Md.). Results are presented as the percentage of wound closure.

Molecule	in vitro bactericidal activity, in words [1]	in vitro bactericidal activity, in words [2]	in vitro bactericidal activity, in words [3]	in vitro bactericidal activity, in words [4]	binding of Pseudomonas LPS [5]	neutralization of LPS: attenuation of TNF-α release [6]	corneal wound closure vs buffer control, in words [7]	migration of HCECs vs buffer control, in words [8]	time to complete closure of scratch wounds ([9]; CAP37 250 ng/ml) [h]	percentage wound closure ([9]; positive control) [%]
CC[C@H](C)[C@H](NC(=O)[C@H](CC(C)C)NC(=O)[C@H](C)NC(=O)CNC(=O)CNC(=O)[C@H](CS)NC(=O)[C@H](Cc1ccccc1)NC(=O)[C@H](Cc1c[nH]cn1)NC(=O)[C@H](CCCNC(=N)N)NC(=O)CNC(=O)[C@H](CCC(N)=O)NC(=O)[C@H](CC(N)=O)NC(=O)[C@H](CCCNC(=N)N)NC(=O)[C@H](CCCNC(=N)N)NC(=O)[C@H](CCCNC(=N)N)NC(=O)[C@H](CCCNC(=N)N)NC(=O)CCOCCOCCNC(=O)CCOCCOCCN)C(=O)N[C@@H](Cc1c[nH]cn1)C(=O)N[C@@H](C)C(=O)N[C@@H](CCCNC(=N)N)C(=O)N[C@@H](Cc1ccccc1)C(=O)N[C@H](C(=O)N[C@@H](CCSC)C(=O)N[C@H](C(=O)N[C@@H](C)C(=O)N[C@@H](C)C(=O)N[C@@H](CO)C(=O)N[C@@H](CS)C(=O)N[C@@H](Cc1ccccc1)C(=O)N[C@@H](CCC(N)=O)C(=O)N[C@@H](CCCNC(=N)N)C(=O)O)[C@@H](C)O)C(C)C [BCC01-5RMP] (H-[PEG2][PEG2]RRRRNQGRHFCGGALIHARFVMTAASCFQR-OH; C-terminus assumed)	most active	strong, but lesser activity	strong, but lesser activity	most active	bound Pseudomonas LPS	attenuate the release of TNF-α				
B1							significantly higher compared to the buffer control	significant increase in migration	≤ 24	~88

Reference: patent US11884710B2, “Peptide compounds and methods of use in wound healing” (priority 2013, dated 2024)
